Laboratory results taken from patent US20250066412A1, “CRYSTAL OF 4’-SUBSTITUTED NUCLEOSIDE, PREPARATION METHOD THEREFOR, COMPOSITION CONTAINING THE SAME, AND USE THEREOF” (HENAN GENUINE BIOTECH CO., LTD., priority 2022, published 2025).
pEC50: −log10 of the molar value. Where two headings read alike, the source gives them in different places.

What was measured:
[1] = crystal form stability by XRPD after heating, drying or storage; settings: for XRPD / crystal form after heating: heated to 120° C.
HIV [2] = settings: cited from earlier work; for pEC50: E. Michailidis et al J. Biol. Chem. 2009, read-out: HIV inhibitory activity EC50; for inhibitory activities against HIV: literature reports
HIV [3] = settings: CN109893536 B; read-out: anti-HIV activity EC50; cited from earlier work
[4] = at 110° C., DSC and TGA studies, background; cited from earlier work
[5] = heated to 130° C. under nitrogen
[6] = vacuum drying at room temperature for 24 h
[7] = heated to 160° C. under nitrogen protection

For `C#C[C@]1(CO)O[C@@H](n2cnc3c(N)nc(F)nc32)[C@@H](F)[C@@H]1O` [type-I crystal], the XRPD after heating ([1]; heated to 55° C. under nitrogen, cooled to room temperature, exposed to air) was “the diffraction peak intensity of the sample was somewhat reduced”, the “crystal form after heating (XRPD)” value ([1]; heated to 100° C. under nitrogen protection) was “transformed into an amorphous crystal” and the weight loss (further heated from 110° C. to 200° C.) was 3.5%. It also gave a weight loss (heated to 110° C.) of 13.2%.

For `C#C[C@]1(CO)O[C@@H](n2cnc3c(N)nc(F)nc32)C[C@@H]1O` [Compound 1], the pEC50 (HIV [2]) is given as 10.30, the “increase of HIV inhibitory activity by introduction of 2-fluorine” value (HIV [2]; EFdA versus EdA) is given as 2200 times and the “inhibitory activities against HIV” value (HIV [2]) is given as “significant inhibitory activities”.

For `C#C[C@]1(CO)O[C@@H](n2cnc3c(N)nc(F)nc32)[C@@H](F)[C@@H]1O` [compound (3), (2R,3R,4S,5R)-5-(6-amino-2-fluoro-9H-purin-9-yl)-2-ethynyl-4-fluoro-2-(hydroxymethyl)tetrahydrofuran-3-ol], the pEC50 (HIV [3]) is listed as 9.05.

In the case of `C#C[C@]1(CO)O[C@@H](n2cnc3c(N)nc(F)nc32)[C@@H](F)[C@@H]1O` [type-V crystal], the “crystal form after heating (variable-temperature XRPD)” value ([1]; further heated to 154° C.) was “transformed into another crystal”, the “crystal form after heating (variable-temperature XRPD)” value ([1]; heated to 90° C. and 130° C. under nitrogen protection) was “substantially transformed into an amorphous crystal” and the “crystallinity (variable-temperature XRPD)” value ([1]; purged with nitrogen for about 20 min) was “significant decrease in degree of crystallinity”. For the same compound, the weight loss (further heated from 140° C. to 240° C.) was 2.8% and the weight loss (heated to 140° C.) was 15.4%.

For `C#C[C@]1(CO)O[C@@H](n2cnc3c(N)nc(F)nc32)[C@@H](F)[C@@H]1O` [type-X crystal], the “crystal form after heating (variable-temperature XRPD)” value ([1]; further heated to 145° C.) was “the crystal form was transformed”, the “XRPD / crystal form after heating” value [1] was “the position of the diffraction peak shifted” and the XRPD after heating [1, 5] was “the diffraction peak intensity was significantly reduced”. For the same compound, the weight loss (further heated from 130° C. to 160° C.) was 4.5% and the weight loss (heated to 130° C.) was 7.9%.

With `C#C[C@]1(CO)O[C@@H](n2cnc3c(N)nc(F)nc32)[C@@H](F)[C@@H]1O` [type-II crystal] the “crystal form after drying” value ([1]; vacuum dried at room temperature for half an hour) was “transformed into a type-III crystal”.

With `C#C[C@]1(CO)O[C@@H](n2cnc3c(N)nc(F)nc32)[C@@H](F)[C@@H]1O` [type-XII crystal] the “crystal form after drying” value ([1]; vacuum dried at room temperature for 10 min) was “transformed into an amorphous crystal” and the weight loss (heated to 120° C.) was 59.6%.

For `C#C[C@]1(CO)O[C@@H](n2cnc3c(N)nc(F)nc32)[C@@H](F)[C@@H]1O` [type-XV crystal], the “XRPD / crystal form after heating” value [1] was “the crystal form transformation occurred” and the weight loss (heated to 120° C.) was 2.2%.

For `C#C[C@]1(CO)O[C@@H](n2cnc3c(N)nc(F)nc32)[C@@H](F)[C@@H]1O` [type-VII crystal], the XRPD after heating [1, 5] was “the crystal form was transformed” and the weight loss (heated to 130° C.) was 11.2%.

In the case of `C#C[C@]1(CO)O[C@@H](n2cnc3c(N)nc(F)nc32)[C@@H](F)[C@@H]1O` [type-XIV crystal], the “stability of the crystal form (overall finding)” value [1] was “unstable intermediate state” and the “crystal form after removal from the solvent environment” value ([1]; room temperature) was “transformed into the type-XIII crystal”.

With `C#C[C@]1(CO)O[C@@H](n2cnc3c(N)nc(F)nc32)[C@@H](F)[C@@H]1O` [type-XI crystal] the weight loss (heated to 120° C.) was 19.3%.

For `C#C[C@]1(CO)O[C@@H](n2cnc3c(N)nc(F)nc32)[C@@H](F)[C@@H]1O` [type-XVII crystal], the change on drying ([1]; dried at 90° C. for 1 to 24 h) was “lost one molecule of water” and the weight loss (dried at 90° C. for 1 to 24 h) was 5.47%.

For `C#C[C@]1(CO)O[C@@H](n2cnc3c(N)nc(F)nc32)[C@@H](F)[C@@H]1O` [type-XVI crystal], the “crystal form after heating (XRPD)” value ([1]; heated to 55° C. in a nitrogen atmosphere, held for 2 to 24 h) was “the type-XVII crystal was also obtained”, the “crystal form after drying” value [1, 6] was “turned into a monohydrate crystal form” and the “weight loss (dehydration)” value [6] was 14.39%.

In the case of `C#C[C@]1(CO)O[C@@H](n2cnc3c(N)ncnc32)C[C@@H]1O` [EdA, 4′-ethynyl-2′-deoxyadenosine], the pEC50 (HIV [2]) is listed as 7.96.

For `C#C[C@]1(CO)O[C@@H](n2cnc3c(N)nc(F)nc32)[C@@H](F)[C@@H]1O` [crystal form A], the weight loss [4] is given as 9.0%.

For `C#C[C@]1(CO)O[C@@H](n2cnc3c(N)nc(F)nc32)[C@@H](F)[C@@H]1O` [type-IV crystal], the XRPD after storage ([1]; dried crystal left closed at room temperature for about 5 days) was “increased relative intensity of the diffraction peaks and increased number of diffraction peaks”, the “crystal form after heating (XRPD)” value ([1]; heated to 141° C. under nitrogen protection) was “transformed into a stable type-III crystal” and the XRPD after drying ([1]; vacuum dried at room temperature for 15 min) was “decreased relative intensity of the diffraction peaks”. For the same compound, the weight loss (heated to 120° C.) was 10.6%.

For `C#C[C@]1(CO)O[C@@H](n2cnc3c(N)nc(F)nc32)[C@@H](F)[C@@H]1O` [type-VIII crystal], the “crystal form after heating (XRPD)” value [1, 7] was “the crystal form had been transformed” and the weight loss (heated to 160° C.) was 10.6%.

For `C#C[C@]1(CO)O[C@@H](n2cnc3c(N)nc(F)nc32)[C@@H](F)[C@@H]1O` [type-III crystal], the “crystal form after heating (variable-temperature XRPD)” value ([1]; heated to 150° C. under nitrogen protection) was “the crystal form did not change” and the weight loss (heated to 200° C.) was 1.2%.

With `C#C[C@]1(CO)O[C@@H](n2cnc3c(N)nc(F)nc32)[C@@H](F)[C@@H]1O` [type-VI crystal] the “crystal form after heating (XRPD)” value [1, 7] was “the crystal form was transformed”, the weight loss (further heated from 70° C. to 130° C.) was 5.9% and the weight loss (heated to 70° C.) was 4.9%.

With `C#C[C@]1(CO)O[C@@H](n2cnc3c(N)nc(F)nc32)[C@@H](F)[C@@H]1O` [type-XIII crystal] the “crystal form in a solvent environment” value ([1]; left in a solvent environment at room temperature) was “transformed into the type-XIV crystal” and the “crystal form after drying” value ([1]; left open and dried at room temperature for about 2 h) was “the crystal form was transformed”.

With `C#C[C@]1(CO)O[C@@H](n2cnc3c(N)nc(F)nc32)[C@@H](F)[C@@H]1O` [type-IX crystal] the “crystallinity after heating (XRPD)” value ([1]; heated to 95° C. under nitrogen, cooled to room temperature, exposed to air) was “the degree of crystallinity was further decreased”, the “crystal form after heating (XRPD)” value [1, 7] was “its crystal form had been transformed” and the crystallinity after storage ([1]; left closed at room temperature for about 3 days) was “a reduced degree of crystallinity”. It also gave a weight loss (heated to 160° C.) of 20.3%.

In the case of `[N-]=[N+]=N[C@]1(CO)O[C@@H](n2ccc(N)nc2=O)[C@@H](F)[C@@H]1O` [compound (II)], the “inhibitory activities against HIV” value (HIV [2]) is given as “significant inhibitory activities”.
